In patent US8372617B2, “β-galactoside-α2,6-sialyltransferase, a gene encoding thereof, and a method for enhancing enzyme activity” (Japan Tobacco Inc., priority 2007, dated 2013):
Values joined by “and” are separate entries in the source; they are usually repeats but may differ in a detail not shown here. Equal entries are not always repeated.

System: recombinant β-galactoside-α2,6-sialyltransferase N1C0
Assay: Transfer of sialic acid to glycoproteins
Format: biochemical, Photobacterium leiognathi
Settings: enzyme +; 30° C. for 0.5 hours
Procedure: As a glycosyl acceptor substrate, asialofetuin and asialomucin were each used. Asialofetuin or asialomucin (2 mg) was dissolved in 1 ml of 20 mM Bis-Tris buffer (pH 7.0) and used as a glycosyl acceptor substrate solution. As a glycosyl donor substrate, CMP-NeuAc was used. The glycosyl acceptor substrate solution (40 μl), the glycosyl donor substrate (5 μl) and the enzyme solution (5 μl) were mixed and incubated at 30° C. for 0.5 hours to cause sialic acid transfer reaction. After completion of the reaction, the reaction solution was gel-filtered by being applied to a Sephadex G-50 Superfine (0.8×18.0 cm) equilibrated with 0.1 M sodium chloride. A glycoprotein-containing eluate fraction (2-4 ml fraction) from gel filtration was collected and measured for its radioactivity using a liquid scintillation counter to quantify sialic acid transferred to the glycosyl acceptor substrate.

recombinant β-galactoside-α2,6-sialyltransferase N1C0, sequence (as listed by the source): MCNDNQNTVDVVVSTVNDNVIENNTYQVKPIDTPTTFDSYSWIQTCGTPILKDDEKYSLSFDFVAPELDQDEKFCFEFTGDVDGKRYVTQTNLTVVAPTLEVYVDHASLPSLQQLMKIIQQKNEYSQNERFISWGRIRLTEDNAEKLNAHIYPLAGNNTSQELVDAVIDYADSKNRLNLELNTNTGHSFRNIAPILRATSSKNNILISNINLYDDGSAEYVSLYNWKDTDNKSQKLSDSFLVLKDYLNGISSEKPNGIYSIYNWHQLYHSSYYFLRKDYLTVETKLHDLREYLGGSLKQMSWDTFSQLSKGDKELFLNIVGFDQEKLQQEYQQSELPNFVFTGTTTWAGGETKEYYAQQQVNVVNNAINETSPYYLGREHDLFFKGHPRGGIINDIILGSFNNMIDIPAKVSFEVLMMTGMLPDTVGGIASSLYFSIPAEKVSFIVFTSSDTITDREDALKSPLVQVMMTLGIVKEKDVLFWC

“Asialofetuin: glycoprotein used as glycosyl acceptor substrate” was tested, and the “NeuAc transferred (cpm)” value was 2140 cpm and 2038 cpm.
